Source: patent US20140031278A1, “Novel Glucagon Analogues” (NOVO NORDISK A/S, priority 2011, published 2014)
*1 amine or outer side, *2 acyl side, *3 side chain or, on linkers, in order; H or OH if unused. Where a SMILES comes first, the peptide text is derived from it. Side-chain parts run from the residue outwards. γGlu = O=C(O)[C@H](CCC(=O)[*:2])N[*:1]; εLys = N[C@@H](CCCCN[*:1])C(=O)[*:2]; Suc = O=C(CCC(=O)[*:2])[*:1]

Molecular target: T1, glucagon receptor (Homo sapiens, UniProt P47871)
T1 construct: expressed in transfected cells
T1 sequence (P47871 26-477): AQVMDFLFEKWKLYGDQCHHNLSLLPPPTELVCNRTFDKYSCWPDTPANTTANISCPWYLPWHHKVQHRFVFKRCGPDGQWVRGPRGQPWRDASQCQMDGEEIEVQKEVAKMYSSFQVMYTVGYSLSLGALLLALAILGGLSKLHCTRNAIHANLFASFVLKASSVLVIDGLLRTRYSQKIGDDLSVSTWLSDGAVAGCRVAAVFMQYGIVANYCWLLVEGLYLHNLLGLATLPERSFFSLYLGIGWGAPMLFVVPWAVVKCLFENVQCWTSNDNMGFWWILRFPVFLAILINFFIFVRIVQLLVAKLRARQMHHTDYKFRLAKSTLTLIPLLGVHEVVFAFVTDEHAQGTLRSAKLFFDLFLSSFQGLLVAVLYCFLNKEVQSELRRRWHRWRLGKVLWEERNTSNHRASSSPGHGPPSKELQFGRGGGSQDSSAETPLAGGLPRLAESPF
Test: Assay (I) Glucagon activity (cAMP biosensor, FLIPR)
Assay type: cell-based
Conditions: HEK-293 cells with cloned glucagon receptor and cAMP biosensor; end point after 6 minutes
Protocol: The glucagon receptor was cloned into HEK-293 cells having a membrane bound cAMP biosensor (ACTOne™). The cells (14000 per well) were incubated (37° C., 5% CO2) overnight in 384-well plates. Next day the cells were loaded with a calcium responsive dye that only distributed into the cytoplasm. Probenecid, an inhibitor of the organic anion transporter, was added to prevent the dye from leaving the cell. A PDE inhibitor was added to prevent formatted cAMP from being degraded, The plates were placed into a […] and the glucagon analogues were added. End point data were collected after 6 minutes. An increase in intracellular cAMP was proportional to an increased in calcium concentrations in the cytoplasm. When calcium was bound the dry a fluorescence signal was generated. EC50-values were calculated in Prism5.

Row | SMILES | EC50 [nM]
1 | CC(=O)N[C@@H](CCC(=O)N[C@@H](CCC(=O)N[C@@H](CCC(=O)N[C@@H](CCC(=O)NCCCC[C@H](NC(=O)[C@@H](NC(=O)[C@H](Cc1ccccc1)NC(=O)[C@H](CC(=O)O)NC(=O)[C@H](C)NC(=O)[C@H](C)NC(=O)[C@H](CCCNC(=N)N)NC(=O)[C@H](CCCNC(=N)N)NC(=O)[C@H](CC(C)C)NC(=O)[C@H](CC(=O)O)NC(=O)[C@H](CC(C)C)NC(=O)[C@H](Cc1ccc(O)cc1)NC(=O)[C@H](CCCNC(=N)N)NC(=O)[C@H](CO)NC(=O)[C@H](Cc1ccc(O)cc1)NC(=O)[C@H](CC(=O)O)NC(=O)[C@H](CO)NC(=O)[C@@H](NC(=O)[C@H](Cc1ccccc1)NC(=O)[C@@H](NC(=O)CNC(=O)[C@H](CCC(N)=O)NC(=O)[C@H](CO)NC(=O)[C@@H](N)Cc1c[nH]cn1)[C@@H](C)O)[C@@H](C)O)C(C)C)C(=O)N[C@@H](Cc1c[nH]c2ccccc12)C(=O)N[C@@H](CC(C)C)C(=O)N[C@@H](CC(C)C)C(=O)N[C@@H](CO)C(=O)N[C@H](C(=O)O)[C@@H](C)O)C(=O)O)C(=O)O)C(=O)O)C(=O)O [Example 56, N^ε24-[(4S)-4-[[(4S)-4-[[(4S)-4-[[(4S)-4-acetamido-4-carboxybutanoyl]amino]-4-carboxybutanoyl]amino]-4-carboxybutanoyl]amino]-4-carboxybutanoyl]-[Arg^12,Leu^16,Ala^20,Lys^24,Leu^27,Ser^28]-Glucagon] (H-HSQGTFTSDYSRYLDLRRAADFVK([γGlu-γGlu-γGlu-γGlu-Ac])WLLST-OH) | 0.02
2 | CC(=O)N[C@@H](CCC(=O)N[C@@H](CCC(=O)N[C@@H](CCC(=O)N[C@@H](CCC(=O)NCCCC[C@H](NC(=O)[C@@H](NC(=O)[C@H](Cc1ccccc1)NC(=O)[C@H](CC(=O)O)NC(=O)[C@H](CCC(N)=O)NC(=O)[C@H](C)NC(=O)[C@H](CCCNC(=N)N)NC(=O)[C@H](CCCNC(=N)N)NC(=O)[C@H](CC(C)C)NC(=O)[C@H](CC(=O)O)NC(=O)[C@H](CC(C)C)NC(=O)[C@H](Cc1ccc(O)cc1)NC(=O)[C@H](CCCCN)NC(=O)[C@H](CO)NC(=O)[C@@H](NC(=O)[C@H](CC(=O)O)NC(=O)[C@H](CO)NC(=O)[C@@H](NC(=O)[C@H](Cc1ccccc1)NC(=O)[C@@H](NC(=O)CNC(=O)[C@H](CCC(N)=O)NC(=O)[C@H](CO)NC(=O)[C@@H](N)Cc1c[nH]cn1)[C@@H](C)O)[C@@H](C)O)C(C)C)C(C)C)C(=O)N[C@@H](Cc1c[nH]c2ccccc12)C(=O)N[C@@H](CC(C)C)C(=O)N[C@@H](CC(C)C)C(=O)N[C@@H](CO)C(=O)N[C@H](C(=O)O)[C@@H](C)O)C(=O)O)C(=O)O)C(=O)O)C(=O)O [Example 43, N^ε24-[(4S)-4-[[(4S)-4-[[(4S)-4-[[(4S)-4-acetamido-4-carboxybutanoyl]amino]-4-carboxybutanoyl]amino]-4-carboxybutanoyl]amino]-4-carboxybutanoyl]-[Val^10,Leu^16,Lys^24,Leu^27,Ser^28]-Glucagon] (H-HSQGTFTSDVSKYLDLRRAQDFVK([γGlu-γGlu-γGlu-γGlu-Ac])WLLST-OH) | 0.016
3 | CC(C)C[C@H](NC(=O)[C@H](CC(=O)O)NC(=O)[C@H](CC(C)C)NC(=O)[C@H](Cc1ccc(O)cc1)NC(=O)[C@H](CCCNC(=N)N)NC(=O)[C@H](CO)NC(=O)[C@H](Cc1ccc(O)cc1)NC(=O)[C@H](CC(=O)O)NC(=O)[C@H](CO)NC(=O)[C@@H](NC(=O)[C@H](Cc1ccccc1)NC(=O)[C@@H](NC(=O)CNC(=O)[C@H](CCC(N)=O)NC(=O)[C@H](CO)NC(=O)[C@@H](N)Cc1c[nH]cn1)[C@@H](C)O)[C@@H](C)O)C(=O)N[C@@H](CCCNC(=N)N)C(=O)N[C@@H](CCCNC(=N)N)C(=O)N[C@@H](C)C(=O)N[C@@H](C)C(=O)N[C@@H](CC(=O)O)C(=O)N[C@@H](Cc1ccccc1)C(=O)N[C@H](C(=O)N[C@@H](CCCCNC(=O)CC[C@H](NC(=O)CC[C@H](NC(=O)CC[C@H](NC(=O)CC[C@H](NC(=O)CCC(=O)O)C(=O)O)C(=O)O)C(=O)O)C(=O)O)C(=O)N[C@@H](Cc1c[nH]c2ccccc12)C(=O)N[C@@H](CC(C)C)C(=O)N[C@@H](CC(C)C)C(=O)N[C@@H](CO)C(=O)N[C@H](C(=O)O)[C@@H](C)O)C(C)C [Example 66, N^ε24-[(4S)-4-carboxy-4-[[(4S)-4-carboxy-4-[[(4S)-4-carboxy-4-[[(4S)-4-carboxy-4-(3-carboxypropanoylamino)butanoyl]amino]butanoyl]amino]butanoyl]amino]butanoyl]-[Arg^12,Leu^16,Ala^20,Lys^24,Leu^27,Ser^28]-Glucagon] (H-HSQGTFTSDYSRYLDLRRAADFVK([γGlu-γGlu-γGlu-γGlu-Suc])WLLST-OH) | 0.02
4 | CC(C)C[C@H](NC(=O)[C@H](Cc1ccc(O)cc1)NC(=O)[C@H](CCCCN)NC(=O)[C@H](CO)NC(=O)[C@H](Cc1ccc(O)cc1)NC(=O)[C@H](CC(=O)O)NC(=O)[C@H](CO)NC(=O)[C@@H](NC(=O)[C@H](Cc1ccccc1)NC(=O)[C@@H](NC(=O)CNC(=O)[C@H](Cc1c[nH]cn1)NC(=O)[C@H](CO)NC(=O)[C@@H](N)Cc1c[nH]cn1)[C@@H](C)O)[C@@H](C)O)C(=O)N[C@@H](CCC(=O)O)C(=O)N[C@@H](CO)C(=O)N[C@@H](CCCNC(=N)N)C(=O)N[C@@H](CCCNC(=N)N)C(=O)N[C@@H](C)C(=O)N[C@@H](C)C(=O)N[C@@H](CC(=O)O)C(=O)N[C@@H](Cc1ccccc1)C(=O)N[C@H](C(=O)N[C@@H](CCCCNC(=O)CC[C@H](NC(=O)CC[C@H](NC(=O)CC[C@H](NC(=O)CC[C@H](N)C(=O)O)C(=O)O)C(=O)O)C(=O)O)C(=O)N[C@@H](Cc1c[nH]c2ccccc12)C(=O)N[C@@H](CC(C)C)C(=O)N[C@@H](CC(C)C)C(=O)N[C@@H](CO)C(=O)N[C@H](C(=O)O)[C@@H](C)O)C(C)C [Example 5, N^ε24-[(4S)-4-[[(4S)-4-[[(4S)-4-[[(4S)-4-amino-4-carboxybutanoyl]amino]-4-carboxybutanoyl]amino]-4-carboxybutanoyl]amino]-4-carboxybutanoyl]-[His3,Glu15,Ala20,Lys24,Leu27,Ser28]-Glucagon] (H-HSHGTFTSDYSKYLESRRAADFVK([γGlu-γGlu-γGlu-γGlu])WLLST-OH) | 0.0563
5 | CC(=O)N[C@@H](CCC(=O)N[C@@H](CCC(=O)N[C@@H](CCC(=O)N[C@@H](CCC(=O)NCCCC[C@H](N)C(=O)NCCCC[C@H](NC(=O)[C@H](CC(=O)O)NC(=O)[C@H](CC(C)C)NC(=O)[C@H](Cc1ccc(O)cc1)NC(=O)[C@H](CCCCN)NC(=O)[C@H](CO)NC(=O)[C@H](Cc1ccc(O)cc1)NC(=O)[C@H](CC(=O)O)NC(=O)[C@H](CO)NC(=O)[C@@H](NC(=O)[C@H](Cc1ccccc1)NC(=O)[C@@H](NC(=O)CNC(=O)[C@H](CCC(N)=O)NC(=O)[C@H](CO)NC(=O)[C@@H](N)Cc1c[nH]cn1)[C@@H](C)O)[C@@H](C)O)C(=O)N[C@@H](CCCNC(=N)N)C(=O)N[C@@H](C)C(=O)N[C@@H](C)C(=O)N[C@@H](CCC(N)=O)C(=O)N[C@@H](CC(=O)O)C(=O)N[C@@H](Cc1ccccc1)C(=O)N[C@H](C(=O)N[C@@H](CCC(N)=O)C(=O)N[C@@H](Cc1c[nH]c2ccccc12)C(=O)N[C@@H](CC(C)C)C(=O)N[C@@H](CC(C)C)C(=O)N[C@@H](CO)C(=O)N[C@H](C(N)=O)[C@@H](C)O)C(C)C)C(=O)O)C(=O)O)C(=O)O)C(=O)O [Example 59] (H-HSQGTFTSDYSKYLDK([εLys-γGlu-γGlu-γGlu-γGlu-Ac])RAAQDFVQWLLST-NH2) | 0.013
